Experimental data as given in article PMC11438102, “Modulation of cannabinoid receptor 2 alters neuroinflammation and reduces formation of alpha-synuclein aggregates in a rat model of nigral synucleinopathy” (Journal of Neuroinflammation, 2024).

How the values were obtained:
RAW264.7 macrophages = experiment: Phagocytosis assay with pHrodo green E. coli bioparticles; format: cell-based; conditions: vs vehicle; for integrated density of GFP (phagocytosis of E. coli bioparticles): 100ng/mL LPS; for phagocytosis of E. coli bioparticles: 1 μg/mL LPS
Procedure: The RAW264.7 macrophage cells (ATCC Cat# TIB-71, RRID: CVCL_0493) were grown in sterile media which consisted of DMEM high glucose, 10% FBS, 2mM L-glutamine, 1x Pen-strep and 1x sodium pyruvate in a humidified 5% CO2 incubator at 37°C. RAW264.7 were maintained in […] tissue culture flasks and plated at a density of 1 × 10^4 cells in triplicate in 96-well plates for assays. Cells were stimulated with either lipopolysaccharide (LPS O111:B4; Sigma Cat#L2630) at 100ng/mL or 1000ng/mL (750EU/mL or 7500 EU/mL, respectively). One hour prior to this stimulation the cells were pre-treated with the CB2 inverse agonist SMM-189 at 3μM or 7 μm or its vehicle. Specifically for cell culture experiments, SMM-189 was formulated with 40% ethanol (v/v), 20% tween-20 (v/v) and 40% saline (v/v). A phagocytosis assay was conducted 24 h after LPS.
The phagocytosis assay was performed using pHrodo green E. coli bioparticles (Invitrogen Cat# P35366) according to the manufacturer’s instructions. Five images per well were then collected every 30 min for 24 h on an EVOS M7000 microscope (Invitrogen, ThermoFisher Scientific). The cells were maintained for this duration using an on-stage incubator kept at 37°C and 5% CO2. Analysis of the collected images was performed using EVOS Celleste software (version 5.0), which counted the cells and then measured the integrated optical density of fluorescence within each well over the 24-hour time course. Analysis was conducted on the average integrated optical density across triplicate wells. Results were consistent across duplicate experimental replicates.

PBMCs = experiment: Multicolor flow cytometry of PBMCs (high cohort); format: in vivo, rat
Procedure: An additional cohort of rats (termed “high cohort”) was evaluated to determine effects of SMM-189 on immune cell populations in the brain, resident or infiltrating, and the periphery as measured by flow cytometry (Fig. 1). To ensure infiltrating peripheral immune cells, rats were stereotaxically injected with a higher titer of AAV2/5-human WT Asyn (4.6 × 10^12 vg/mL) and underwent an identical drug treatment timeline with animals sacrificed at 4 (SMM-189: n = 5; vehicle: n = 6) and 8 weeks (SMM-189: n = 7; vehicle: n = 7). At sacrifice, animals were deeply anesthetized with euthasol (i.p., 150 mg/kg) and rapid decapitation performed using a sharp guillotine. Brains were collected at endpoints, and brain immune cells isolated and evaluated using multicolor flow cytometry. Additionally, blood was collected at baseline, 4 and 8 weeks (SMM-189: n = 13; vehicle: n = 13) after stereotaxic surgery for PBMCs isolation to immunophenotype using flow cytometry and for plasma evaluation of SMM-189.
PBMCs were isolated from blood of low cohort rats at euthanasia (8 weeks) for qPCR analysis of immune genes and from blood of high cohort rats at baseline, 4 and 8 weeks after AAV2/5-human WT Asyn and evaluated with flow cytometry for a longitudinal immunophenotype assessment. Red blood cells were lysed using 1x RBC lysis buffer (Biolegend Cat#420301) for 5 min in the dark. Lysis buffer was neutralized by adding 1x HBSS (Gibco Cat#14175095). Cells were pelleted by centrifugation at 400g for 5 min, supernatant removed, and cells washed with HBSS. For the high cohort, cells were resuspended in 200μL of PBS and transferred to a 96-well v-bottom plate for flow cytometry staining. For low cohort, 10,000 cells were lysed in 600μL RLT lysis buffer (Qiagen Cat#79216) + 1% BME, further homogenized by centrifugation through a QiaShredder column (2 min at 21,130g). Lysate was then stored at -80°C and later processed for RNA extraction.
Peripheral and central immune cell staining was performed similarly as previously published protocols. In brief, immune cells were washed and resuspended in PBS, then incubated for 30 min at room temperature in LIVE/DEAD Fixable Red Dead cell stain (ThermoFisher Scientific Cat#L23102; 1:2000). Following two washes in PBS, Fc receptors were blocked with anti-rat CD32 Fc block diluted 1:100 in FACS buffer (1mM EDTA and 0.1% sodium azide in PBS) for 15 min at 4°C. PBMCs were stained for separate myeloid and lymphoid panels and brain immune cells stained with an antibody panel to identify microglia, monocytes and lymphocytes (Table S1-S3). Fluorophore conjugated antibodies diluted with FACS buffer were incubated at 4 °C for 20 min. Cells stained for surface myeloid markers were fixed in 1% PFA for 25 min and washed in FACS.
PBMCs stained with lymphoid panel were further probed intracellularly for transcriptional marker Foxp3 to label […] T cells. […] Then washed and resuspended in FACs buffer. All samples had 10uL of AccuCheck Counting beads (ThermoFisher Cat#PCB100) added to final suspension and cells were run on a LSRII Instrument (BD Biosciences, Franklin Lakes, NJ) with FACSDiva software (BD Biosciences). Results were analyzed using FlowJo 10.8.1 software and brain immune populations of monocytes (classical and non-classical), lymphocytes (CD4 + and CD8+) or microglia and PBMC populations defined by specific strategies (Figure S1-S3).
For PBMC analysis, raw frequencies were normalized across serial runs against vehicle-treated values using the following equation: Raw frequency / (average vehicle frequencies of specific run / average baseline frequencies). For brain immune cell analysis of 8 weeks, samples could not be collected and ran the same day so frequencies were normalized across treatment group at each timepoint using the following equation: raw frequency / (average treatment frequency of specific run 1 / average treatment frequency of specific run 2). […]

For `O=C(c1ccccc1)c1cc(O)c(-c2cc(Cl)cc(Cl)c2)c(O)c1` [SMM-189], the “integrated density of GFP (phagocytosis of E. coli bioparticles)” value (RAW264.7 macrophages; pre-treatment 3 μm, p = 0.0024) was “significantly increased”, the “integrated density of GFP (phagocytosis of E. coli bioparticles)” value (RAW264.7 macrophages; pre-treatment 7 μm, p < 0.0001) was “significantly increased” and the “phagocytosis of E. coli bioparticles” value (RAW264.7 macrophages; 3 μm) was “intensified”. The “phagocytosis of E. coli bioparticles” value (RAW264.7 macrophages; 7 μm) was “intensified”, the “MHCII MFI on CD43-His48+ classical monocytes” value (PBMCs; 4 weeks, vs control) was “increased” and the “frequencies of Tregs (CD4+Foxp3+; CD4+Foxp3+CD25+)” value (PBMCs; 8 weeks compared to own baseline) was “elevated”. For the same molecule, the granulocytes (PBMCs; 8 weeks, vs vehicle) was “decreases”, the “wound-healing non-classical monocytes (CD43+)” value (PBMCs; 8 weeks, vs vehicle) was “increases” and the “Lymphocyte frequencies of CD4 or CD8 populations (or the CD4 to CD8 ratio)” value (PBMCs; between treatments) was “did not reveal significant differences”. The “counts of both CD4 and CD8+ T cells” value (PBMCs; vs vehicle) was “decreased” and the “circulating classically-activated monocytes (CD43-His48+)” value (PBMCs; weeks 4 and 8, vs vehicle) was “reduced”.
